# Source: patent publication US20140065241A1, “USES OF (-)-PERHEXILINE” (Adelaide Research & Innovation Pty Ltd, priority 2012, published 2014)
# pEC50: −log10 of the molar value.
# Columns and labels:
# [1] = clinical use of racemic drug; cited from earlier work
# [2] = tested on: rat isoprenaline model of heart failure; assay: Plasma troponin T in rat isoprenaline model of heart failure; format: in vivo; conditions: DA rats; 2 weeks pre-treatment 200 mg/kg/day; isoprenaline 50 mg/kg i.p.; plasma 3 hr after
# Method: The effect of racemic perhexyline, (+)-perhexyline and (−)-perhexyline on myocardial damage in a rat isoprenaline model of heart failure, using Troponin T as an indirect measure of myocardial damage was investigated. The use of a rat isoprenaline model of heart failure is as described in Teerlink, J R et al. (1994) “Progressive ventricular remodeling in response to diffuse isoproterenol-induced myocardial necrosis in rats” Circ Res, 75: 105-13.
# DA rats were treated for 2 weeks with vehicle or 200 mg/kg/day of racemic, (+)- or (−)-perhexyline maleate, on day 15 myocardial necrosis was induced by i.p. injection of 50 mg/kg isoprenaline, with a second group of controls receiving an i.p. injection of saline (n=5). Cardiac troponin T levels were measured in plasma collected 3 hr following treatment by venipuncture of the tail vein.
# TXNIP = assay: Myocardial TXNIP staining (immunohistochemistry) after isoprenaline; format: in vivo, rat; conditions: DA rats; 2 weeks pre-treatment 200 mg/kg/day; isoprenaline 50 mg/kg
# Description: CONT; *=P<0.05 c.f. ISO; ̂=P=0.05 c.f. ISO. […] T×NIP is a regulatory protein which couples substrate utilization and redox state. Increased expression of T×NIP is associated with increased oxidative stress, decreased insulin secretion, decreased glucose uptake and suppression of PPARα (a major nuclear transcription factor regulating lipid metabolism). Thus, both (−)-perhexyline and (+)-perhexyline may also exert cardioprotection via inhibition of T×NIP.
# rat isoprenaline model = assay: Histological assessment of isoprenaline-induced myocardial injury; format: in vivo; conditions: DA rats; 2 weeks pre-treatment 200 mg/kg/day; isoprenaline 50 mg/kg
# Method: DA rats were treated for 2 weeks with vehicle or 200 mg/kg/day of racemic, (+)- or (−)-perhexyline maleate, on day 15 myocardial necrosis was induced by i.p. injection of 50 mg/kg isoprenaline, with a second group of controls receiving an i.p. injection of saline (n=5). Cardiac troponin T levels were measured in plasma collected 3 hr following treatment by venipuncture of the tail vein. […] The severity and extent of myocardial injury were assessed by a pathologist who was blinded to the treatment, and classified as: 0—no change; 1—mild (single mild focus of myocyte damage or multiple small foci with mild inflammatory cell infiltrate); 2—moderate (multiple larger foci of myocyte damage with moderate inflammatory cell infiltrate) and 3—severe (multiple larger foci of myocyte damage with severe inflammatory cell infiltrate or broad zone of necrosis with extensive inflammation). Results were analysed by dividing animals into two response groups 0-1: no or mild >1: moderate to severe.
# Dark Agouti rats = assay: Peripheral neural function by von Frey filament testing (paw withdrawal threshold); format: in vivo, rat; conditions: DA rats treated for 8 weeks, vs vehicle
# Method: At 56 days, neuronal function was measured prior to euthanasia using von Frey filament testing. The thickness of each filament corresponds to a specific amount of pressure (in grams). Each animal was placed in a specifically designed plastic container, with the bottom replaced by mesh flooring. The animal was left for 10-15 minutes to settle into its new environment. In ascending order, von Frey filaments were applied from beneath the mesh flooring to the plantar surface of the paw until the filament buckled and was held there for a total of 10 seconds. A positive response was noted if the paw was withdrawn within the 10-second period. If a filament induced 6 positive responses, the grams corresponding to that filament were recorded as the paw withdrawal threshold.
# To test the effect of each enantiomer on peripheral neural function, a Von Frey hairs model was used.
# human neutrophil NOX2 = biological target: T1, human neutrophil NOX2 (Homo sapiens, UniProt P04839); assay: Inhibition of ex vivo superoxide formation by NOX2 in human neutrophils; format: cell-based; conditions: neutrophils from 11 healthy young volunteers
# T1 construct: Using neutrophils from 11 healthy young volunteers; endogenous in cells; host or cells: human neutrophils from healthy volunteers
# T1 sequence (P04839 2-570 limits assumed): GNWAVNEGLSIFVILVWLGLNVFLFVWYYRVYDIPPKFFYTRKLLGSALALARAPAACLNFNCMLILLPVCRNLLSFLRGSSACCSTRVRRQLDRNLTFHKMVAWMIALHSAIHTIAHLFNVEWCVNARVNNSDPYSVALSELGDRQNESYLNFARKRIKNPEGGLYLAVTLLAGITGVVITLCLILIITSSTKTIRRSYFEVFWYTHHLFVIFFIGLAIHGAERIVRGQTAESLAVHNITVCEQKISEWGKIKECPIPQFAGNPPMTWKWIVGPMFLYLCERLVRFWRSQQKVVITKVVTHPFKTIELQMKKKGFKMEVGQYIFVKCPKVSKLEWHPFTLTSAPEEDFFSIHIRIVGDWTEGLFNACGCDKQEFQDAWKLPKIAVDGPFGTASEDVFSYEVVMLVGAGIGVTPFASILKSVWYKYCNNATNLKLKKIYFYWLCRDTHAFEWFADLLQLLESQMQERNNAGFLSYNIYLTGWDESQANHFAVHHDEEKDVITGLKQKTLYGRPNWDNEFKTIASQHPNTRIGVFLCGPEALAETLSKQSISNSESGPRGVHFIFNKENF
# T1 sequence (P13498 2-195 partner limits assumed): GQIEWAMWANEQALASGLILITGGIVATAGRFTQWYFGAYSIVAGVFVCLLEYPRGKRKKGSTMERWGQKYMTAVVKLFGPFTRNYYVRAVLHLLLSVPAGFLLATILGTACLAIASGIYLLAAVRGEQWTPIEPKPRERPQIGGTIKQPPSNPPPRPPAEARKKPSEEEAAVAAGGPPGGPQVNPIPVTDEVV
# Description: As an index of anti-inflammatory and nitric oxide-sparing potential, the relative potency of the enantiomers as inhibitors of ex vivo superoxide formation by NOX2 was investigated in human neutrophils.
# Whilst this enantioselectivity is consistent with different therapeutic indices for the enantiomers, it can be seen that both still contribute to perhexyline's anti-inflammatory effects.
# [3] = Perhexyline enantiomer concentrations in plasma, liver and heart; format: in vivo, rat; conditions: DA rats; for plasma concentration: pure enantiomer 200 mg/kg daily for 8 weeks
# Method: Adult female Dark Agouti (DA) rats (n=4 in each group) were administered 200 mg/kg daily of vehicle, racemic-, (+) or (−)-perhexyline maleate for a period of 2 months. The perhexyline maleate compound was administered mixed with peanut paste and coated onto standard rat chow. On day 56 of dosing, animals were anesthetized and blood was collected via a cardiac puncture in order to determine the concentrations of perhexyline enantiomers. Animals were then euthanized and hepatic, cardiac and neuronal tissues were harvested in order to determine perhexyline enantiomer and metabolite tissue concentrations and morphological changes. Tissues were cut in half and either immediately snap frozen in liquid nitrogen or placed into fixative solution for electron microscopy analysis.
# Plasma, liver and hear concentrations were measured in Dark Agouti rats treated for 8 weeks with 200 mg/kg/day of (+)-, (−)- or racemic-perhexyline (animals as described in Example 2) using the method of Davies et al., Journal of Chromatography B, 832 (2006) 114-120.
# The data are shown in FIGS. 6A and 6B with concentrations adjusted to the equivalent of a 100 mg/kg enantiomeric dose.
# Dark Agouti (DA) rats = assay: Histological (electron microscopy) assessment of hepatic lipid and glycogen content after 8 weeks of dosing; format: in vivo, rat; conditions: for hepatic glycogen content / hepatic lipid content: 200 mg/kg daily for 8 weeks, vs vehicle, 200 mg/kg
# Method: Adult female Dark Agouti (DA) rats (n=4 in each group) were administered 200 mg/kg daily of vehicle, racemic-, (+) or (−)-perhexyline maleate for a period of 2 months. The perhexyline maleate compound was administered mixed with peanut paste and coated onto standard rat chow. On day 56 of dosing, animals were anesthetized and blood was collected via a cardiac puncture in order to determine the concentrations of perhexyline enantiomers. Animals were then euthanized and hepatic, cardiac and neuronal tissues were harvested in order to determine perhexyline enantiomer and metabolite tissue concentrations and morphological changes. Tissues were cut in half and either immediately snap frozen in liquid nitrogen or placed into fixative solution for electron microscopy analysis. Tissue was dissected into cubes of approximately 0.5 mm in each dimension and was fixed for one hour in electron microscopy (EM) fixative (4% formaldehyde and 1.5% glutaraldehyde in sodium cacodylate buffer, pH 7.2). The fixed tissue was post-fixed in 2% osmium tetroxide in sodium cacodylate buffer, en bloc stained with 2% uranyl acetate and dehydrated through 70%, 90% and 100% ethanol. Then, the tissue was processed through 1,2-epoxypropane, a 50/50 mixture of 1,2-epoxypropane and Procure 812 resin (Electron Microscopy Sciences, Fort Washington, USA) and two changes of 100% resin. Tissue and resin were transferred to Beem capsules and placed in an oven overnight at 90° C. Survey sections of tissue blocks were cut with glass knives and stained with Toluidine Blue. Thin sections were cut at approximately 100 nm thickness on a Porter-Blum ultramicrotome (Sorvall, Newtown, USA) using a diamond knife (Micro Star Technologies, Huntsville, USA). Thin sections were stained with Reynolds' lead citrate and examined in a Hitachi H-600 transmission electron microscope (Tokyo, Japan 1983). Glycogen and lipids were identified and total content was measured as a percentage of the field of view.
# [4] = tested on: pyruvate dehydrogenase (PDH); assay: Total and phosphorylated pyruvate dehydrogenase in heart tissue by Western blots; format: in vivo; conditions: DA rat heart; 2 weeks 200 mg/kg/day; isoprenaline 50 mg/kg
# Method: DA rats were treated for 2 weeks with vehicle or 200 mg/kg/day of racemic, (+)- or (−)-perhexyline maleate, on day 15 myocardial necrosis was induced by i.p. injection of 50 mg/kg isoprenaline (HCl salt), with a second group of controls receiving an i.p. injection of saline (n=5-8). Total and phosphorylated pyruvate dehydrogenase in heart tissue was measured by Western blots.
# [5] = 8 weeks 200 mg/kg/day, dose-adjusted
neural sensory function (Von Frey hairs) (Dark Agouti rats),pEC50 (human neutrophil NOX2),"distribution into liver, pure enantiomer compared to the racemic formulation [3, 5]",plasma concentration [3] [ng/mL],hepatic lipid content (Dark Agouti (DA) rats),"tissue distribution, pure enantiomer vs as part of the racemic formulation [3, 5]",SMILES,"plasma concentration at which severe adverse effects (hepatotoxicity, peripheral neuropathy) are typically seen [1]",recipients with adverse effects [1],effect on isoprenaline-induced rise in plasma troponin T [2],isoprenaline-induced increase in myocardial TXNIP staining (TXNIP),isoprenaline-induced myocardial damage (histological score) (rat isoprenaline model),hepatic glycogen content (Dark Agouti (DA) rats),"hepatic steatosis (Dark Agouti (DA) rats; 8 weeks, plasma concentrations similar to those causing hepatotoxicity in humans)",PDH deactivation (measured as phosphorylated PDH) [4],inhibition of PDH deactivation compared with (+)-perhexyline [4],total PDH expression [4]
,,,,,,"C1CCC(C(CC2CCCCN2)C2CCCCC2)CC1 (racemic) [racemic perhexyline, 2-(2,2-dicyclohexylethyl) piperidine]",greater than 0.6 mg/L,more than 60%,not affected,,,,,,,
significant decline,5.74,significantly increased,520 to 800,significantly increased,,"C1CCC(C(CC2CCCCN2)C2CCCCC2)CC1 (single isomer, unassigned; (+)) [(+)-perhexyline, (+)-enantiomer of perhexyline]",,,not affected,attenuated,only partially attenuated,appeared to decrease,causes hepatic steatosis,,,
did not,5.89,,220 to 390,no effect,similar,"C1CCC(C(CC2CCCCN2)C2CCCCC2)CC1 (single isomer, unassigned; (-)) [(−)-perhexyline, (−)-enantiomer of perhexyline]",,,exacerbated,attenuated,attenuated,significantly increased,,extremely potent inhibitor,more potent,did not affect
